Results on six compounds are retold here after ChEMBL document CHEMBL2407029 (Bioorg Med Chem Lett, 2013).

The nature of assay [1]: Displacement of [131I]-[D-Ala2,4'-I-Phe8]alpha-Neoendorphin from opioid receptor in CD-1 mouse brain after 90 mins by competitive binding assay. The assay is classed as tissue-based.
Assay [2] can be described thus: (§1) Binding affinity to opioid receptor in CD-1 mouse brain after 90 mins. Particulars: read-out: Kd(app).
Assay [3] concerns the target Kappa-type opioid receptor (Homo sapiens, UniProt P41145). The assay can be described thus: Displacement of [125]IBNtxA from KOR-1 (unknown origin) transfected in CHO cells after 90 mins by competitive binding assay. The assay is classed as cell-based.
The target in assay [4] is Delta-type opioid receptor (Homo sapiens, UniProt P41143). In words: Displacement of [125]IBNtxA from DOR-1 (unknown origin) transfected in CHO cells after 90 mins by competitive binding assay. The assay is classed as cell-based.
For another assay, the species on record is Mus musculus. Described as §1. Particulars: tested as the 131I-labelled form.

Square brackets hold non-standard residues; d marks the D form. Peptide text beside a SMILES is read from it. Phe(4-I) = N[C@@H](Cc1ccc(I)cc1)C(=O)O

As a reminder, the Ki is a measure of affinity in units of concentration, obtained from inhibition or displacement. A high value points to a looser hold on the target. In assay [1], `CC(C)C[C@H](NC(=O)[C@H](Cc1ccccc1)NC(=O)CNC(=O)CNC(=O)[C@@H](N)Cc1ccc(O)cc1)C(=O)N[C@@H](CCCNC(=N)N)C(=O)N[C@@H](CCCNC(=N)N)C(=O)N[C@@H](CCC(N)=O)C(=O)N[C@@H](Cc1ccccc1)C(=O)N[C@@H](CCCCN)C(=O)N[C@H](C(=O)N[C@H](C(=O)N[C@H](C(=O)O)[C@@H](C)O)C(C)C)C(C)C` [DYNORPHIN B] returned a Ki of 6.7 nM.

Regarding `C[C@@H](NC(=O)[C@@H](N)Cc1ccc(O)cc1)C(=O)NCC(=O)N(C)[C@@H](Cc1ccccc1)C(=O)NCCO` [DAMGO], the inhibition constant (Ki) in assay [1] was determined as 1.4 nM.

For `CC[C@H](C)[C@H](NC(=O)[C@H](CCCNC(=N)N)NC(=O)[C@H](CCCNC(=N)N)NC(=O)[C@H](CC(C)C)NC(=O)[C@H](Cc1ccccc1)NC(=O)CNC(=O)CNC(=O)[C@@H](N)Cc1ccc(O)cc1)C(=O)N[C@@H](CCCNC(=N)N)C(=O)N1CCC[C@H]1C(=O)N[C@@H](CCCCN)C(=O)N[C@@H](CC(C)C)C(=O)N[C@@H](CCCCN)C(=O)N[C@@H](Cc1c[nH]c2ccccc12)C(=O)N[C@@H](CC(=O)O)C(=O)N[C@@H](CC(N)=O)C(=O)N[C@@H](CCC(N)=O)C(=O)O` [DYNORPHIN A (1-17)], the Ki in assay [1] stood at 5.5 nM. In the case of `CC(C)C[C@H](NC(=O)[C@H](Cc1ccccc1)NC(=O)CNC(=O)[C@@H](C)NC(=O)[C@@H](N)Cc1ccc(O)cc1)C(=O)N[C@@H](CCCNC(=N)N)C(=O)N[C@@H](CCCCN)C(=O)N[C@@H](Cc1ccc([131I])cc1)C(=O)N1CCC[C@H]1C(=O)N[C@@H](CCCCN)C(=O)O`, the Kd in assay [2] is 11 nM. On to `CC(C)C[C@H](NC(=O)[C@H](Cc1ccccc1)NC(=O)CNC(=O)CNC(=O)[C@@H](N)Cc1ccc(O)cc1)C(=O)N[C@@H](CCCNC(=N)N)C(=O)N[C@@H](CCCCN)C(=O)N[C@@H](Cc1ccc(O)cc1)C(=O)N1CCC[C@H]1C(=O)N[C@@H](CCCCN)C(=O)O` (H-YGGFLRKYPK-OH), for which the Ki in assay [1] worked out at 9.8 nM; in assay [3], 2.4 nM; in assay [4] it was 1.7 nM.

`CC(C)C[C@H](NC(=O)[C@H](Cc1ccccc1)NC(=O)CNC(=O)[C@@H](C)NC(=O)[C@@H](N)Cc1ccc(O)cc1)C(=O)N[C@@H](CCCNC(=N)N)C(=O)N[C@@H](CCCCN)C(=O)N[C@@H](Cc1ccc(I)cc1)C(=O)N1CCC[C@H]1C(=O)N[C@@H](CCCCN)C(=O)O` (H-Y[dA]GFLRK[Phe(4-I)]PK-OH) came in with a Bmax in the assay filed under Mus musculus of 465 fmol/mg.
